Test results published in patent US4094899A, “Oxaprostaglandins” (Pfizer Inc., priority 1973, dated 1978).

Assays:
[1] = system: histamine induced bronchospasm in the guinea pig; assay: histamine induced bronchospasm in the guinea pig (aerosol); format: in vivo; settings: for Histamine Aerosol: per cent protection for histamine induced bronchospasm: 100 μg/ml aerosol dose, guinea pig
Protocol: (§1) These tests include, among others, a test for effect on isolated smooth muscle from guinea pig ileum and rat uterus, a test for effect on histamine induced bronchospasm in guinea pig, a test for effects on dog blood pressure, a test for induction of diarrhea in mice, and a test for the induction of abortion in early pregnant rats.
^(b) Per cent protection by 100 μg/ml aerosol dose for histamine
induced bronchospasm in the guinea pig.

estrogenized rat uterus = assay: spasmogenic effect on estrogenized rat uterus in vitro; settings: read-out: Rat Uterus: threshold dose for spasmogenic effect
From the text: as §1
^(c) Threshold dose for spasmogenic effect on estrogenized rat uterus

[2] = system: anesthetized dog blood pressure; assay: depressor effect on anesthetized dog blood pressure; format: in vivo; settings: for Dog Blood Pressure: relative dose at which oxaprostaglandin derivative has similar action to PGE2 for depressor effect: anesthetized dog
From the text: as §1
^(a) Relative dose at which oxaprostaglandin derivative has similar
action to PGE2 for depressor effect on anesthetized dog blood

guinea pig ileum = assay: spasmogenic effect on guinea pig ileum in vitro; settings: Cavia porcellus, read-out: Guinea pig Ileum: threshold dose for spasmogenic effect
From the text: as §1
^(d) Threshold dose for spasmogenic effect on guinea pig ileum in […]

early pregnant rat = assay: induction of abortion in early pregnant rats; format: in vivo
From the text: as §1
(§2) On the basis of the difference seen in the rat uterus and guinea pig ileum tests with 19 -oxaprostaglandin E2, one would expect to have a reduction of the unpleasant gastrointestinal side effects which were encountered when natural PGE2 was employed as an abortion inducer (Lancet, 536, 1971).

[3] = molecular target: norepinephrine stimulated lipolysis; assay: inhibition of norepinephrine stimulated lipolysis; settings: read-out: K: inhibition constant for norepinephrine stimulated lipolysis
From the text: ^(e) Inhibition constant for norepinephrine stimulated lipolysis.

[4] = physiological tests taken together (Table I; comparison with natural prostaglandin); settings: in words; compared with natural prostaglandin; rat uterus vs guinea pig ileum
From the text: as §1, §2

mice = assay: induction of diarrhea in mice in vivo
From the text: as §1, §2

Ki [3] [nM]	effectiveness in inducing diarrhea relative to natural PGE2 (mice) [%]	Structure (SMILES)	Histamine Aerosol: per cent protection for histamine induced bronchospasm [1] [%]	minimal effective concentration (estrogenized rat uterus) [µg/mL]	Dog Blood Pressure: relative dose at which oxaprostaglandin derivative has similar action to PGE2 for depressor effect [2]	selectivity with regard to blood pressure effects ([2]; in words, from Table I)	minimal effective concentration (guinea pig ileum) [µg/mL]	effectiveness in inducing abortion compared with natural PGE2 (early pregnant rat)	tissue selectivity [4]	bronchodilator selectivity compared with natural PGE2 ([1]; in words, from Table I)
–	–	CCOCC[C@H](O)/C=C/[C@H]1[C@H](O)CC(=O)[C@@H]1C/C=C\CCCC(=O)O [18-oxa PGE2, 9-oxo-11α,15α-dihydroxy-18-oxa-cis-5-trans-13-prostadienoic acid]	3	0.1 to 0.3	2	particularly selective with regard to its blood pressure effects	0.1 to 0.3	–	–	–
–	–	CCOCC[C@H](O)/C=C/[C@@H]1[C@@H](C/C=C\CCCC(=O)O)[C@@H](O)C[C@H]1O [18-oxa PGF2α, 9α,11α,15α-trihydroxy-18-oxa-cis-5-trans-13-prostadienoic acid]	–	0.3 to 0.6	–	–	0.1 to 0.3	–	–	–
2500	10	COCCC[C@H](O)/C=C/[C@H]1[C@H](O)CC(=O)[C@@H]1C/C=C\CCCC(=O)O [19-oxa PGE2, 9-oxo-11α,15α-dihydroxy-19-oxa-cis-5-trans-13-prostadienoic acid]	19	0.05 to 0.1	20	–	0.1 to 0.5	as effective as natural PGE2	tissue selectivity, particularly 19-oxaprostaglandin E2	–
–	–	COCCC[C@H](O)/C=C/[C@@H]1[C@@H](C/C=C\CCCC(=O)O)[C@@H](O)C[C@H]1O [19-oxa PGF2α, 9α,11α,15α-trihydroxy-19-oxa-cis-5-trans-13-prostadienoicacid]	–	0.1 to 0.5	–	–	0.1 to 0.5	–	–	–
4000	–	CCOCCC[C@H](O)/C=C/[C@H]1[C@H](O)CC(=O)[C@@H]1C/C=C\CCCC(=O)O [19-oxa-ω-homo-PGE2, 9-oxo-11α,15α-dihydroxy-19-oxa-cis-5-trans-13-w-homo-prostadienoic acid]	38	0.1	4	–	0.1	–	–	more selective bronchodilator than natural PGE2
–	–	CCOCCC[C@H](O)/C=C/[C@@H]1[C@@H](C/C=C\CCCC(=O)O)[C@@H](O)C[C@H]1O [19-oxa-ω-homo-PGF2α, 9α,11α,15α-trihydroxy-19-oxa-cis-5-trans-13-ω-homoprostadienoic acid]	–	0.06 to 0.3	–	–	≥ 0.1	–	–	–
400	–	CCCCC[C@H](O)/C=C/[C@H]1[C@H](O)CC(=O)[C@@H]1C/C=C\CCCC(=O)O [PGE2, reference compound]	75	0.01 to 0.03	1	–	0.01 to 0.03	–	–	–
